Source: article PMC8815272 (The Journal of Supercritical Fluids, 2022)

Key:
[1] = high permeability, low water solubility; cited from earlier work
[2] = Solubility of favipiravir in supercritical CO2; assay type: physicochemical
[3] = assay type: physicochemical; conditions: binary system favipiravir-SC-CO2, from model

For `NC(=O)c1nc(F)c[nH]c1=O` [Favipiravir], the “class in the Biopharmaceutics Classification System (BCS)” value [1] is given as “class II”, the “y2 × 10^4 (Mole Fraction)” value ([2]; SC-CO2, 308 K, 12 MPa, density 768.42 kg/m^3) is given as 0.53 mole fraction × 10^4 and the “y2 × 10^4 (Mole Fraction)” value ([2]; SC-CO2, 308 K, 15 MPa, density 816.06 kg/m^3) is given as 0.87 mole fraction × 10^4. For the same molecule, the “y2 × 10^4 (Mole Fraction)” value ([2]; SC-CO2, 308 K, 18 MPa, density 848.87 kg/m^3) was 1.44 mole fraction × 10^4, the “y2 × 10^4 (Mole Fraction)” value ([2]; SC-CO2, 308 K, 21 MPa, density 874.40 kg/m^3) was 2.31 mole fraction × 10^4 and the “y2 × 10^4 (Mole Fraction)” value ([2]; SC-CO2, 308 K, 24 MPa, density 895.54 kg/m^3) was 3.42 mole fraction × 10^4. The “y2 × 10^4 (Mole Fraction)” value ([2]; SC-CO2, 308 K, 27 MPa, density 913.69 kg/m^3) was 4.09 mole fraction × 10^4, the “y2 × 10^4 (Mole Fraction)” value ([2]; SC-CO2, 308 K, 30 MPa, density 929.68 kg/m^3) was 5.13 mole fraction × 10^4 and the “y2 × 10^4 (Mole Fraction)” value ([2]; SC-CO2, 318 K, 12 MPa, density 659.73 kg/m^3) was 0.37 mole fraction × 10^4. For the same molecule, the “y2 × 10^4 (Mole Fraction)” value ([2]; SC-CO2, 318 K, 15 MPa, density 743.17 kg/m^3) was 0.80 mole fraction × 10^4, the “y2 × 10^4 (Mole Fraction)” value ([2]; SC-CO2, 318 K, 18 MPa, density 790.18 kg/m^3) was 1.30 mole fraction × 10^4 and the “y2 × 10^4 (Mole Fraction)” value ([2]; SC-CO2, 318 K, 21 MPa, density 823.70 kg/m^3) was 2.72 mole fraction × 10^4. For the same molecule, the “y2 × 10^4 (Mole Fraction)” value ([2]; SC-CO2, 318 K, 24 MPa, density 850.10 kg/m^3) was 4.29 mole fraction × 10^4, the “y2 × 10^4 (Mole Fraction)” value ([2]; SC-CO2, 318 K, 27 MPa, density 872.04 kg/m^3) was 5.41 mole fraction × 10^4 and the “y2 × 10^4 (Mole Fraction)” value ([2]; SC-CO2, 318 K, 30 MPa, density 890.92 kg/m^3) was 6.48 mole fraction × 10^4. For the same molecule, the “y2 × 10^4 (Mole Fraction)” value ([2]; SC-CO2, 328 K, 12 MPa, density 506.85 kg/m^3) was 0.08 mole fraction × 10^4, the “y2 × 10^4 (Mole Fraction)” value ([2]; SC-CO2, 328 K, 15 MPa, density 654.94 kg/m^3) was 0.60 mole fraction × 10^4 and the “y2 × 10^4 (Mole Fraction)” value ([2]; SC-CO2, 328 K, 18 MPa, density 724.13 kg/m^3) was 1.39 mole fraction × 10^4. For the same molecule, the “y2 × 10^4 (Mole Fraction)” value ([2]; SC-CO2, 328 K, 21 MPa, density 768.74 kg/m^3) was 3.21 mole fraction × 10^4, the “y2 × 10^4 (Mole Fraction)” value ([2]; SC-CO2, 328 K, 24 MPa, density 801.92 kg/m^3) was 4.75 mole fraction × 10^4 and the “y2 × 10^4 (Mole Fraction)” value ([2]; SC-CO2, 328 K, 27 MPa, density 828.51 kg/m^3) was 6.58 mole fraction × 10^4. For the same molecule, the “y2 × 10^4 (Mole Fraction)” value ([2]; SC-CO2, 328 K, 30 MPa, density 850.83 kg/m^3) was 7.65 mole fraction × 10^4, the “y2 × 10^4 (Mole Fraction)” value ([2]; SC-CO2, 338 K, 12 MPa, density 384.17 kg/m^3) was 0.03 mole fraction × 10^4 and the “y2 × 10^4 (Mole Fraction)” value ([2]; SC-CO2, 338 K, 15 MPa, density 555.23 kg/m^3) was 0.37 mole fraction × 10^4. The “y2 × 10^4 (Mole Fraction)” value ([2]; SC-CO2, 338 K, 18 MPa, density 651.18 kg/m^3) was 1.32 mole fraction × 10^4, the “y2 × 10^4 (Mole Fraction)” value ([2]; SC-CO2, 338 K, 21 MPa, density 709.69 kg/m^3) was 3.92 mole fraction × 10^4 and the “y2 × 10^4 (Mole Fraction)” value ([2]; SC-CO2, 338 K, 24 MPa, density 751.17 kg/m^3) was 5.6 mole fraction × 10^4. For the same molecule, the “y2 × 10^4 (Mole Fraction)” value ([2]; SC-CO2, 338 K, 27 MPa, density 783.29 kg/m^3) was 7.57 mole fraction × 10^4, the “y2 × 10^4 (Mole Fraction)” value ([2]; SC-CO2, 338 K, 30 MPa, density 809.58 kg/m^3) was 9.05 mole fraction × 10^4 and the “total heat (ΔHtotal)” value [3] was 70.09 kJ/mol. For the same molecule, the “vaporization heat (ΔHvap)” value [3] was 90.12 kJ/mol.
